{"source": "patent EP1388013B1", "about": "“COMPOSITIONS AND METHODS FOR THE USE OF FIBRONECTIN FRAGMENTS IN THE DIAGNOSIS OF CANCER” (THE REGENTS OF THE UNIVERSITY OF MICHIGAN, priority 2001, dated 2002)", "key": {"[1]": {"system": "neonatal fibroblasts", "experiment": "SU-ECM invasion assay, neonatal fibroblasts", "format": "cell-based, human", "description": "In one example cells for the invasion assay are harvested by rinsing in Hanks' balanced salt solution, followed by brief treatment with 0.25% trypsin, 0.02% EDTA, and pelleting and resuspension in the appropriate medium with or without 5% FCS at a density of about 50,000 cells per ml. When appropriate, purified bovine plasma fibronectin (from Sigma, St. Louis, Mo), purified 120 kDa chymotryptic fragment (Gibco BRL) or PHSRN peptides (synthesized at the Biomedical Research Core Facilities of the University of Michigan) are added to the resuspended cells prior to placement of the cells on SU-ECM. In each well of a plate used for an invasion assay, SU-ECM were placed in 0.5 ml of the appropriate medium, and 0.5ml of the resuspended cells dropped on their exterior surfaces. Invasion assays were incubated 1 to 16 hours prior to assay. If some circumstances, invasion assays were fixed in phosphate-buffered saline (PBS) with 2% formaldehyde for 5 minutes at room temperature, then rinsed into PBS.\n(§1) Invasion assays are coded and scored blindly by microscopic examination under phase contrast at 200- and 400-fold magnification. Each cell contacting an SU-ECM is scored for its position relative to the exterior or interior surfaces. A cell is judged to have invaded if it is located on an interior surface below the focal plane passing through the upper surface of the SU-ECM, but above the focal plane passing through its lower surface. The minimum viability of the cells in each assay is always ascertained at the time of assay by determining the fraction of spread, adherent cells on the bottom of each well scored.\n(§2) An invasion frequency is defined as the fraction of cells in contact with basement membranes which are located in their interiors at the time of assay. Thus, an invasion frequency of 1 denotes invasion by 100% of the cells in contact with basement membranes. Invasion frequencies are determined multiple times for each cell type assayed. For each type of cell assayed the mean and standard deviation of the invasion frequencies were calculated.\nIn this example, the invasiveness of neonatal fibroblasts into an SU-ECM invasion substrate is considered. Experiments were performed under serum-free conditions, or in medium with 10% fetal calf serum (FCS). Neither serum-free medium nor medium containing serum supported fibroblast invasion. However, consistent with the induction of metalloproteinase gene transcription by the 120 kDa fragment of plasma fibronectin (pFn) containing the cell-binding domain, the 120 kDa fragment induced fibroblast invasion in the presence or in the absence of serum. […]"}, "[2]": {"system": "Mouse muscle satellite cells", "experiment": "SU-ECM invasion assay, muscle satellite cells", "format": "cell-based", "settings": "1 microgram per ml, presence or absence of serum; Figure 13", "description": "In one example cells for the invasion assay are harvested by rinsing in Hanks' balanced salt solution, followed by brief treatment with 0.25% trypsin, 0.02% EDTA, and pelleting and resuspension in the appropriate medium with or without 5% FCS at a density of about 50,000 cells per ml. When appropriate, purified bovine plasma fibronectin (from Sigma, St. Louis, Mo), purified 120 kDa chymotryptic fragment (Gibco BRL) or PHSRN peptides (synthesized at the Biomedical Research Core Facilities of the University of Michigan) are added to the resuspended cells prior to placement of the cells on SU-ECM. […]\nas §1, with “A cell is judged to have invaded if it is located on an interior surface below the focal plane passing through the upper surface of the SU-ECM, but above the focal plane passing through its lower surface.” left out\nas §2, with “Thus, an invasion frequency of 1 denotes invasion by 100% of the cells in contact with basement membranes.” left out, “calculated. […]” for “calculated.”"}, "[3]": {"system": "normal, neonatal fibroblasts", "experiment": "Invasion of fibronectin-depleted Matrigel by fibroblasts", "format": "cell-based", "settings": "gelatin plus antibody panned Matrigel; Figure 2", "experimental": "Anti-fibronectin antibody-coated wells: Wells of a 24-well plate were coated with an anti-fibronectin antibody. A mouse monoclonal antibody to human fibronectin was obtained from Oncogene Science (Catalog #CP13). Each well was incubated with 1 ml of antibody at a concentration of […] for 2 hours at room temperature. Each well was then incubated with a solution of 3% BSA in PBS for 2 hours at room temperature. Following the two incubation periods, the wells were thoroughly washed with PBS and stored at -20 °C until use.\nDepleting Matrigel of Fibronectin: Matrigel was panned over eight gelatin-coated wells (as described above in Example 2) to remove most of the fibronectin and its fragments. Thereafter, the Matrigel was placed in the antibody-coated wells to remove any remaining fragments of fibronectin which contain the cell-binding domain but not the gelatin-binding domain. The Matrigel was incubated in an ice bucket on an orbital shaker at 4 °C for 2 hours. Once the Matrigel was depleted, it was collected in Eppendorf tubes. The fibronectin-depleted Matrigel was plated on a 48-well plate (150 µl/well), sterilized under a UV light for 10 minutes and incubated at 37 °C overnight. The Matrigel formed a gel and the following day, cells were added to the wells. […]"}}, "note": "No end group written: not given here."}
{"substance": "PHSRN [PHSRN]", "values": [{"measurement": "induction of fibroblast invasion of SU-ECM, dose response", "setting": "[1]; 10 to 3000 ng per ml, presence or absence of serum, log-linear, Figure 10", "value": "able to induce fibroblast invasion"}, {"measurement": "induction of fibroblast invasion of SU-ECM", "setting": "[1]; in the presence (10% FCS) or absence of serum, molar concentration equivalent to plasma fibronectin in serum, Figure 9", "value": "contained all the invasion-stimulatory activity"}, {"measurement": "induction of fibroblast invasion of SU-ECM", "setting": "[1]; serum-free SU-ECM", "value": "induced"}, {"measurement": "induction of SU-ECM invasion by muscle satellite cells", "setting": "[2]", "value": "induced the invasion"}, {"measurement": "induction of fibroblast invasiveness on fibronectin-depleted Matrigel", "setting": "[3]", "value": "could be induced"}]}
